Measurements: patent US9216181B2 (Southwest Research Institute, priority 2011, dated 2015)
Where “and” joins values, the source holds several entries; their conditions need not be identical. Identical values can stand only once. Counter-ions that a name gives are not always drawn. Like-named read-outs stand apart in the source and are kept apart here.

How the values were obtained:
BMP-2 [1] = experiment: BMP-2 fold change of JHU library compounds, confirmed by qPCR; format: cell-based, human; settings: JHU library compounds; non-treated = 1.00
Source text: To further verify the technique, a 2T3 mouse pre-osteoblast cell line derived from calvaria courtesy of Dr. Steve Harris, UTHSCSA, was utilized to visually screen the compounds of the BIOMOL library and JHU libraries, purchased from John Hopkins University including 2387 compounds (solution in wells). Specifically, Murine 2T3 were thawed from one frozen cryovial and re-seeded into two T-75 tissue culture flasks grown in Alpha MEM with 10% FBS, Glutamine, and Pen/Strip antibiotics. Cells were incubated in a humidified 37° C. under 5% CO2 for 48 hours or when cells reached 80% confluence. After reaching confluency, the 2T3 were trypsinized and resuspended in pre-warm growth media to a cell density of 5×10^4 cells/mL. Approximately 100 uL of cell suspension was seeded to a 96 well plate to give a final 5,000 cells per well. Plate was incubated overnight at 37° C. and spent media was aspirated and replace with 100 uL of growth media with 5-10 uM of presumptive drug compounds. A set of controls were untreated and treated with 10 uM of Lovastatin to be used as a visual reference morphological screening.
Human mesenchymal stem cells (LONZA, Catalog PT2501) were maintained in Mesenchymal stem cells basal media (MSCBM CAT#PT-3238). Early passage cells were plated in triplicate at 2×10^4 cells/cm^2 using six well tissue culture plates and grown in humidified 5% CO2 at 37° C. for 24 hours. Spent media was replaced by assay media of drugs to be tested in same media as above at 10 μM final concentration. Untreated cells were used as the control group. […] RNA concentration and integrity was assessed by absorbance 260/280 and electrophoresis in 1% Agarose with formaldehyde loading dye. For TaqMan gene expression, cDNA was synthesized from 2 μg of total RNA using the High Capacity cDNA Reverse Transcription Kit (Applied Biosystems, Cat. 4368814). The resulting cDNA were diluted 1:100 for TaqMan and amplified by real-time quantitative PCR. […] A cocktail of universal master mix (Applied Biosystems, 4369016) were prepared individually for both set of primers which contained Taq Polymerase, dNTPs, and buffer. Template cDNA's were added separately to respective individual wells in triplicate samples. The PCR were performed on StepOne Plus Real Time System instrument (Applied Biosystems). The amplification program consisted of 1 cycle of 95° C. with 10 minute hold (hot start) followed by 50 cycles of 95° C. with 15 second annealing hold and 1 minute 60° C. specified acquisition hold. […] Change in gene expression was determined by the expression ΔΔCt relative method.
Included in the tables is the target or common medical use for each compounds.

BMP-2 [2] = experiment: Real time PCR of BMP-2 gene expression in human MSC (Cells-to-Ct); format: cell-based; settings: BMP-2 mRNA, hMSC, 5-10 μM, 24 hours, vs untreated
Protocol: Early passage human mesenchymal stem cells (MSC) were thawed from one frozen cryo-vial and seeded into two T-75 tissue culture flasks and incubated at 37° C. for 48 hours in Alpha MEM with 10% FBS. After three days and one re-feeding, the cells were trypsinized and re-suspended in pre-warmed media at 5×10^4 cells/mL to provide 5,000 cells per well in a 96 well plate and incubated overnight at 37° C. in 5% CO2.
Each well was washed in cold PBS, lysed at room temperature for five minutes, and stop reagent added to each well to stop the lysis reaction. The final lysate was kept cold at 4° C. and used immediately as the RNA template for the reverse transcription cDNA synthesis following the TAQMAN GENE EXPRESSION CELLS TO CT KIT instructions.
The cDNA synthesis was prepared on a separate sterile 96-well PCR plate and performed on the Step One Plus Real Time PCR System instrument (Applied Biosystems) with the programming set at 37° C. for 60 minutes and an inactivation hold of 95° C. for five minutes. The final cDNA reaction was kept cold and used as the template for the TAQMAN GENE Real-Time PCR step following the recommended instructions for TAQMAN GENE EXPRESSION CELLS TO CT KIT assay. […] Template cDNA's were added separately to respective individual wells in replicate samples.
The PCR was performed on the STEPONEPLUS Real-Time System instrument (Applied Biosystems). The amplification program consisted of 1 cycle of 95° C. with 10 minute hold (hot start) and followed by 50 cycles of 95° C. with 15-second annealing hold and 1-minute 60° C. specified acquisition hold.

BMP2 = experiment: Quantitative PCR (TaqMan, ΔΔCt) of BMP2 in human mesenchymal stem cells; format: cell-based; settings: BMP2 mRNA, hMSC, 10 μM, vs untreated, 18S reference; for fold induction at 10 µM: Homo sapiens, Mesenchymal stem cells, read-out: q-PCR Fold increase
Protocol: Human mesenchymal stem cells (LONZA, Catalog PT2501) were maintained in Mesenchymal stem cells basal media (MSCBM CAT#PT-3238). Early passage cells were plated in triplicate at 2×10^4 cells/cm^2 using six well tissue culture plates and grown in humidified 5% CO2 at 37° C. for 24 hours. Spent media was replaced by assay media of drugs to be tested in same media as above at 10 μM final concentration. Untreated cells were used as the control group. Total RNA were prepared using either TRI Reagent (Ambion, Cat. 9738), for subsequent TaqMan gene expression qPCR of BMP2. RNA concentration and integrity was assessed by absorbance 260/280 and electrophoresis in 1% Agarose with formaldehyde loading dye. For TaqMan gene expression, cDNA was synthesized from 2 μg of total RNA using the High Capacity cDNA Reverse Transcription Kit (Applied Biosystems, Cat. 4368814). The resulting cDNA were diluted 1:100 for TaqMan and amplified by real-time quantitative PCR. Gene-specific fluorescent labeled TaqMan primers for FAM-BMP2 (Applied Biosystems, Hs00154192.m1) and TaqMan reference VIC-18S ribosomal RNA (Applied Biosystems, 4310893E) were used to target gene of interest. A cocktail of universal master mix (Applied Biosystems, 4369016) were prepared individually for both set of primers which contained Taq Polymerase, dNTPs, and buffer. Template cDNA's were added separately to respective individual wells in triplicate samples. The PCR were performed on StepOne Plus Real Time System instrument (Applied Biosystems). The amplification program consisted of 1 cycle of 95° C. with 10 minute hold (hot start) followed by 50 cycles of 95° C. with 15 second annealing hold and 1 minute 60° C. specified acquisition hold. The Ct value of endogenous reference gene (i.e. 18 s) was used to control for input RNA and then used to normalize target gene (i.e. BMP2) tested from the same cDNA sample to calculate the Δ Ct, and then calibrated to an internal reference sample. Change in gene expression was determined by the expression ΔΔCt relative method.
18 compounds were confirmed positive by the more stringent qPCR techniques. […] Included in the tables is the target or common medical use for each compounds.

[3] = positive control compounds (Table 1)

Row | Molecule | Fold change (BMP-2) (BMP-2 [1]) | other results
1 | CC(=O)OCC(=O)[C@@]1(O)CC[C@H]2[C@@H]3C[C@H](C)C4=CC(=O)C=C[C@]4(C)[C@H]3[C@@H](O)C[C@@]21C [6alpha-METHYLPREDNISOLONE ACETATE] | 35.00 fold | 
2 | CC[C@@]1(O)C(=O)OCc2c1cc1n(c2=O)Cc2cc3cc(O)ccc3nc2-1 [10-hydroxy-camptothecin] |  | RT PCR Fold increase (BMP-2 [2]; BIOMOL library (Table 2)): 30.0 fold; q-PCR Fold increase (BMP2; BIOMOL library (Table 2)): 3.9 fold
3 | Nc1c2ccccc2nc2ccccc12 [Aminacrine (9-Aminoacridine)] | 5762.00 fold | 
4 | COc1cc(NS(C)(=O)=O)ccc1Nc1c2ccccc2nc2ccccc12 [Amsacrine] | 85.00 fold | 
5 | COc1ccc(C[C@H]2NC[C@H](O)[C@H]2OC(C)=O)cc1 [Anisomycin] | 670.00 fold and 387.00 fold | 
6 | CN1CCc2cccc3c2[C@H]1Cc1ccc(O)c(O)c1-3 [Apomorphine r (−)] |  | RT PCR Fold increase (BMP-2 [2]; BIOMOL library (Table 2)): 4.6 fold; fold induction at 10 µM (BMP2; BIOMOL library (Table 2)): 7.3
7 | CC(=O)OC[C@H]1O[C@@H]([S-])[C@H](OC(C)=O)[C@@H](OC(C)=O)[C@@H]1OC(C)=O.CCP(CC)CC.[Au+] [Auranofin] |  | RT PCR Fold increase (BMP-2 [2]; BIOMOL library (Table 2)): 309.8 fold; q-PCR Fold increase (BMP2; BIOMOL library (Table 2)): 17.6 fold
8 | CC(C)C[C@H](NC(=O)[C@H](Cc1ccccc1)NC(=O)c1cnccn1)B(O)O [Bortezomib] |  | RT PCR Fold increase (BMP-2 [2]; [3]): 15.4 fold; fold induction at 10 µM (BMP2; [3]): 2.4
9 | CC(=O)[O-].CC(=O)[O-].[Cd+2] [Cadmium Acetate] | 8.00 fold | 
10 | C=C1CC[C@H](O)C/C1=C/C=C1\CCC[C@]2(C)[C@@H]([C@H](C)CCCC(C)(C)O)CC[C@@H]12 [Calcifediol] |  | RT PCR Fold increase (BMP-2 [2]; BIOMOL library (Table 2)): 6.0 fold; fold induction at 10 µM (BMP2; BIOMOL library (Table 2)): 3.4
11 | CC[C@@]1(O)C(=O)OCc2c1cc1n(c2=O)Cc2cc3ccccc3nc2-1 [Camptothecin] |  | RT PCR Fold increase (BMP-2 [2]; BIOMOL library (Table 2)): 29.0 fold; fold induction at 10 µM (BMP2; BIOMOL library (Table 2)): 4
12 | COCc1c(C(C)C)nc(C(C)C)c(/C=C/[C@@H](O)C[C@@H](O)CC(=O)O)c1-c1ccc(F)cc1 [Cerivastatin] |  | RT PCR Fold increase (BMP-2 [2]; [3]): 5.3 fold; fold induction at 10 µM (BMP2; [3]): 11.9
13 | CC(C)(C)CC(C)(C)c1ccc(O)c(Cc2ccc(Cl)cc2Cl)c1 [Clofoctol] | 11.00 fold | 
14 | C[C@@H]1C[C@@H]([C@H](O)CC2CC(=O)NC(=O)C2)C(=O)[C@@H](C)C1 [Cycloheximide] | 34.00 fold | 
15 | Oc1ccc(CCN2CCC(Nc3nc4ccccc4n3Cc3ccc(F)cc3)CC2)cc1 [Desmethyl astemizole] | 75.00 fold | 
16 | COc1ccc(-c2cc(=O)c3c(O)cc(O[C@@H]4O[C@H](CO[C@@H]5O[C@@H](C)[C@H](O)[C@@H](O)[C@H]5O)[C@@H](O)[C@H](O)[C@H]4O)cc3o2)cc1O [Diosmin] | 9.00 fold | 

Row | Molecule | Fold change (BMP-2) (BMP-2 [1]) | other results
17 | CC[C@H]1CN2CCc3cc(OC)c(OC)cc3[C@@H]2C[C@@H]1C[C@H]1NCCc2cc(OC)c(OC)cc21 [Emetine] | 220.00 fold | 
18 | CC[C@@H](C(=O)[C@@H](C)[C@@H](O)[C@H](C)CCc1ccc(C)c(O)c1C(=O)[O-])[C@H]1O[C@](CC)([C@H]2CC[C@](O)(CC)[C@H](C)O2)C[C@@H]1C.[Na+] [Laslocid Sodium] | 4.00 fold | 
19 | O=[N+]([O-])c1ccc(O)c2ncccc12 [Nitroxoline (8-hydroxy 5-nitroquinoline)] | 18.00 fold | 
20 | O=P([O-])([O-])OC1C(OP(=O)([O-])[O-])C(OP(=O)([O-])[O-])C(OP(=O)([O-])[O-])C(OP(=O)([O-])[O-])C1OP(=O)([O-])[O-].[Na+].[Na+].[Na+].[Na+].[Na+].[Na+].[Na+].[Na+].[Na+].[Na+].[Na+].[Na+] (centres unmarked) [Phytic acid, dodecasodium salt hydrate] | 15.00 fold | 
21 | Cc1cc(/C=C/c2ccc3cc(N(C)C)ccc3[n+]2C)c(C)n1-c1ccccc1 [Pyrvinium pamoate] | 398.00 fold | 
22 | C=C(C)[C@H]1Cc2c(ccc3c2O[C@@H]2COc4cc(OC)c(OC)cc4[C@@H]2C3=O)O1 [ROTENONE] | 61.00 fold | 
23 | C[CH2][Hg][S]c1ccccc1C(=O)[O-].[Na+] [THIMEROSAL] | 23.00 fold | 
24 | CN(C)C(=S)SSC(=S)N(C)C [THIRAM] | 36.00 fold | 
25 | C=C(NC(=O)C(=C)NC(=O)c1csc(C2=N[C@@H]3c4csc(n4)[C@H]4NC(=O)c5csc(n5)[C@H]([C@](C)(O)[C@@H](C)O)NC(=O)[C@H]5CSC(=N5)/C(=C/C)NC(=O)[C@H]([C@@H](C)O)NC(=O)c5csc(n5)[C@]3(CC2)NC(=O)[C@H](C)NC(=O)C(=C)NC(=O)[C@H](C)NC(=O)[C@H]([C@@H](C)CC)N[C@@H]2C=Cc3c([C@H](C)O)cc(nc3[C@H]2O)C(=O)O[C@@H]4C)n1)C(N)=O [Thiostrepton] | 5.00 fold | 
26 | CC[C@@]1(O)C(=O)OCc2c1cc1n(c2=O)Cc2cc3c(CN(C)C)c(O)ccc3nc2-1 [Topotecan] | 365.00 fold | 
27 | CCC1=C[C@@H]2CN(C1)Cc1c([nH]c3ccccc13)[C@@](C(=O)OC)(c1cc3c(cc1OC)N(C)[C@H]1[C@@](O)(C(=O)OC)[C@H](OC(C)=O)[C@]4(CC)C=CCN5CC[C@]31[C@@H]54)C2 [Vinorelbine tartrate] | 803.00 fold | 
28 | Acriflavine hydrochloride | 1491.00 fold | 
29 | Brilliant Blue | 111.00 fold | 
30 | Proflavine hemisulfate salt hydrate | 177.00 fold | 
31 | Verteporfin | 6.00 fold | 
